According to doi:10.1101/2024.05.26.595989v1 (biorxiv, 2024):
Like-named read-outs stand apart in the source and are kept apart here.

Assays:
[1] = target: T1, PDI (PDIA1), purified / recombinant wild-type human PDI (Homo sapiens, UniProt P07237); assay: biochemical
[2] = target: T1, PDI (PDIA1), purified / recombinant wild-type human PDI; assay: biochemical; remark: listed apart in the source

T1 sequence (P07237 18-508): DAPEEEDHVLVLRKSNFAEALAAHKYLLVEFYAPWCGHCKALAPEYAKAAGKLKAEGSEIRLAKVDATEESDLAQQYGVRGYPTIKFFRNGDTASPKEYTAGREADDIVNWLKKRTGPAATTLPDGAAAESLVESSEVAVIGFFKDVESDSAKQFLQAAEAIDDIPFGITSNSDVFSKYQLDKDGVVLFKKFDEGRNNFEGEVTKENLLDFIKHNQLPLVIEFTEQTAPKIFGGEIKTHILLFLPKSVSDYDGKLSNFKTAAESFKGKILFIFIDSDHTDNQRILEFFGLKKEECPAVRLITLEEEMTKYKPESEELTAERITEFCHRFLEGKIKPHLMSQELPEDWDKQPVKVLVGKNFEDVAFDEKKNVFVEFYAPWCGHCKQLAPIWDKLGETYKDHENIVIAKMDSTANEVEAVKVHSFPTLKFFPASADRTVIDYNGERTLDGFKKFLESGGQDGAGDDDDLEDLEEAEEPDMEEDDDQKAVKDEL

Row | Kd [1] | Kd [2] | SMILES
1 | 24.2 nM |  | C[C@]12CC[C@@H]3c4cc(O)c(O)cc4CC[C@H]3[C@@H]1CCC2=O [2-OH-E1, 1,3,5([10])-Estratrien-2,3-diol-17-one]
2 |  | 61.3 to 68.3 nM | C[C@]12CC[C@@H]3c4cc(O)c(O)cc4CC[C@H]3[C@@H]1CC[C@@H]2O [2-OH-E2, 1,3,5([10])-estratrien-2,3,17β-triol]
